Laboratory results from ChEMBL document CHEMBL5338738, “Discovery of Novel Sesquiterpene Lactone Derivatives as Potent PKM2 Activators for the Treatment of Ulcerative Colitis” (J Med Chem, 2023).
Activity calls are given as the source filed them. No cut-off for these calls is given here.

How the values were obtained:
[1] = Toxicity in C57BL/6 mouse assessed as body weight change at 6.25 to 25 mg/kg, po for 10 days consecutively; assay type: organism-based; conditions: in vivo, 240 h, dose 6.25-25 mg/kg, time 10 day
[2] = Microsomal stability in rat liver microsomes assessed as half life; assay type: ADME, Microsome
CD4+ve Th [3] = experiment: Inhibition of Treg cells differentiation in anti-CD3/CD28 stimulated C57BL/6 mouse mesenteric lymph node CD4+ve Th cells assessed as change in IL10 mRNA expression level cells at 0.1 to 3 uM incubated for 96 hrs in presence of recombinant human TGF-beta by qPCR analysis; assay type: functional, cell-based; conditions: dose 0.1-3 µM
[4] = Toxicity in C57BL/6 mouse assessed as histological change in liver at 6.25 to 25 mg/kg, po for 10 days consecutively by H and E staining based microscopy; assay type: organism-based; conditions: in vivo, 240 h, dose 6.25-25 mg/kg, time 10 day
[5] = MRT(t) in Sprague-Dawley rat at 8 mg/kg,iv and measured upto 24 hrs by LC-MS/MS analysis; assay type: ADME, organism-based; conditions: in vivo
[6] = Inhibition of Th17 cells differentiation in anti-CD3/CD28 stimulated C57BL/6 mouse mesenteric lymph node CD4+ve Th cells assessed as decrease in proportion of IL17A-positive Th17 cells at 1 uM incubated for 96 hrs in presence of recombinant human TGF-beta, recombinant mouse IL-6 and recombinant mouse IL-23 by flow cytometry (Rvb= 16.7%); assay type: functional; conditions: C57BL/6, CD4+ve Th
Mus musculus [7] = experiment: Anti-colitis activity against TNBS-induced ulcerative colitis BALB/c mouse model assessed as decrease in mucosal damage in colon at 12.5 to 25 mg/kg, po for consecutive 7 days by H and E staining based microscopy; assay type: functional, organism-based; conditions: dose 12.5-25 mg/kg, time 7.0 day
[8] = molecular target: Pyruvate kinase PKM (Mus musculus) (UniProt P52480); experiment: Binding affinity to PKM2 in C57BL/6 mouse mesenteric lymph node CD4+ve Th cells assessed as increase in denaturation temperature at 3 uM incubated for 4 hrs by […] analysis; conditions: filed as activator
Mus musculus [9] = experiment: Anti-colitis activity against DSS-induced ulcerative colitis C57BL/6 mouse model assessed as decrease in TNF-alpha mRNA expression level in colon at 12.5 to 25 mg/kg, po for 10 days consecutively by qPCR analysis; assay type: functional, organism-based; conditions: dose 12.5-25 mg/kg, time 10.0 day
[10] = Microsomal stability in rat liver microsomes assessed as hepatic clearance; assay type: ADME, Microsome
[11] = Inhibition of Treg cells differentiation in anti-CD3/CD28 stimulated C57BL/6 mouse mesenteric lymph node CD4+ve Th cells assessed as decrease in proportion of Foxp3-positive Treg cells at 3 uM incubated for 96 hrs in presence of recombinant human TGF-beta by flow cytometry (Rvb= 21.1%); assay type: functional; conditions: C57BL/6, CD4+ve Th
Mus musculus [12] = experiment: Anti-colitis activity against DSS-induced ulcerative colitis C57BL/6 mouse model assessed as downregulation of IL17a mRNA expression level in colon at 12.5 to 25 mg/kg, po for 10 days consecutively by qPCR assay; assay type: functional, organism-based; conditions: dose 12.5-25 mg/kg, time 10.0 day
[13] = Toxicity in C57BL/6 mouse assessed as histological change in heart at 6.25 to 25 mg/kg, po for 10 days consecutively by H and E staining based microscopy; assay type: organism-based; conditions: in vivo, 240 h, dose 6.25-25 mg/kg, time 10 day
Mus musculus [14] = experiment: Anti-colitis activity against TNBS-induced ulcerative colitis BALB/c mouse model assessed as decrease in crypt necrosis in colon at 12.5 to 25 mg/kg, po for consecutive 7 days by H and E staining based microscopy; assay type: functional, organism-based; conditions: dose 12.5-25 mg/kg, time 7.0 day
Mus musculus [15] = experiment: Anti-colitis activity against DSS-induced ulcerative colitis C57BL/6 mouse model assessed as downregulation of IL10 mRNA expression level in colon at 6.25 to 25 mg/kg, po for 10 days consecutively by qPCR assay; assay type: functional, organism-based; conditions: dose 6.25-25 mg/kg, time 10.0 day
T-cell = experiment: Immunomodulatory activity in C57BL/6 mouse mesenteric lymph node T cells assessed as inhibition of concanavalin A stimulated T-cell proliferation incubated for 68 hrs by CCK-8 assay; assay type: functional, cell-based; conditions: C57BL/6, T-cell
CD4+ve Th [16] = experiment: Inhibition of aerobic glycolysis in anti-CD3/CD28 stimulated C57BL/6 mouse mesenteric lymph node CD4+ve Th cells assessed as downregulation of HK2 protein expression level at 0.3 to 3 uM incubated for 96 hrs in presence of recombinant human TGF-beta, recombinant mouse IL-6 and recombinant mouse IL-23 by Western blot analysis; assay type: functional, cell-based; conditions: dose 0.3-3 µM
[17] = Half life in Sprague-Dawley rat at 75 mg/kg,po and measured upto 24 hrs by LC-MS/MS analysis; assay type: ADME, organism-based; conditions: in vivo
Mus musculus [18] = experiment: Anti-colitis activity against DSS-induced ulcerative colitis C57BL/6 mouse model assessed as downregulation of RORC mRNA expression level in spleen at 12.5 to 25 mg/kg, po for 10 days consecutively by qPCR assay; assay type: functional, organism-based; conditions: dose 12.5-25 mg/kg, time 10.0 day
CD4+ve Th [19] = experiment: Inhibition of aerobic glycolysis in anti-CD3/CD28 stimulated C57BL/6 mouse mesenteric lymph node CD4+ve Th cells assessed as downregulation of Pfk1 mRNA expression level at 0.3 to 3 uM incubated for 96 hrs in presence of recombinant human TGF-beta, recombinant mouse IL-6 and recombinant mouse IL-23 by qPCR analysis; assay type: functional, cell-based; conditions: dose 0.3-3 µM
[20] = Oral bioavailability in Sprague-Dawley rat at 75 mg/kg and measured upto 24 hrs by LC-MS/MS analysis; assay type: ADME, organism-based; conditions: in vivo
Mus musculus [21] = experiment: Anti-colitis activity against DSS-induced ulcerative colitis C57BL/6 mouse model assessed as decrease in MPO level in colon at 12.5 to 25 mg/kg, po for 10 days consecutively; assay type: functional, organism-based; conditions: dose 12.5-25 mg/kg, time 10.0 day
[22] = Volume of distribution in Sprague-Dawley rat at 8 mg/kg,iv and measured upto 24 hrs by LC-MS/MS analysis; assay type: ADME, organism-based; conditions: in vivo
[23] = Inhibition of Treg cells differentiation in anti-CD3/CD28 stimulated C57BL/6 mouse mesenteric lymph node CD4+ve Th cells assessed as decrease in proportion of Foxp3-positive Treg cells at 0.1 uM incubated for 96 hrs in presence of recombinant human TGF-beta by flow cytometry (Rvb= 21.1%); assay type: functional; conditions: C57BL/6, CD4+ve Th
[24] = Inhibition of Th17 cells differentiation in anti-CD3/CD28 stimulated C57BL/6 mouse mesenteric lymph node CD4+ve Th cells assessed as decrease in proportion of IL17A-positive Th17 cells at 3 uM incubated for 96 hrs in presence of recombinant human TGF-beta, recombinant mouse IL-6 and recombinant mouse IL-23 by flow cytometry (Rvb= 16.7%); assay type: functional; conditions: C57BL/6, CD4+ve Th
[25] = Inhibition of Treg cells differentiation in anti-CD3/CD28 stimulated C57BL/6 mouse mesenteric lymph node CD4+ve Th cells assessed as decrease in proportion of Foxp3-positive Treg cells at 1 uM incubated for 96 hrs in presence of recombinant human TGF-beta by flow cytometry (Rvb= 21.1%); assay type: functional; conditions: C57BL/6, CD4+ve Th
[26] = Toxicity in C57BL/6 mouse assessed as histological change in spleen at 6.25 to 25 mg/kg, po for 10 days consecutively by H and E staining based microscopy; assay type: organism-based; conditions: in vivo, 240 h, dose 6.25-25 mg/kg, time 10 day
CD4+ve Th [27] = experiment: Inhibition of aerobic glycolysis in anti-CD3/CD28 stimulated C57BL/6 mouse mesenteric lymph node CD4+ve Th cells assessed as downregulation of Glut1 protein expression level at 0.3 to 3 uM incubated for 96 hrs in presence of recombinant human TGF-beta, recombinant mouse IL-6 and recombinant mouse IL-23 by Western blot analysis; assay type: functional, cell-based; conditions: dose 0.3-3 µM

Chain of Pyruvate kinase PKM (Mus musculus) (P52480 whole entry): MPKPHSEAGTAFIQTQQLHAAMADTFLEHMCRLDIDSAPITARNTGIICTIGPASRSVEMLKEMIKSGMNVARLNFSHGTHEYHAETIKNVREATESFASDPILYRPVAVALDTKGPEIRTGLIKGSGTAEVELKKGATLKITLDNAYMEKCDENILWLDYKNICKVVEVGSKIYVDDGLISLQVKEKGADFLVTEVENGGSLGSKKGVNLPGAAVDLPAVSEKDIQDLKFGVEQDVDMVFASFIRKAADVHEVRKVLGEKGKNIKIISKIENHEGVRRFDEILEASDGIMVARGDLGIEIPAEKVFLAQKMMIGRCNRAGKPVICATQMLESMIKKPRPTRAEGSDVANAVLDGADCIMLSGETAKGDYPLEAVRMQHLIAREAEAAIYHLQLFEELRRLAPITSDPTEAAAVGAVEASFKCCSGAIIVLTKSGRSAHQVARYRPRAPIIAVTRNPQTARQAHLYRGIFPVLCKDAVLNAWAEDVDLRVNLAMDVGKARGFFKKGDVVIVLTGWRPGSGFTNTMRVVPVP

Q: With `C=C1C(=O)O[C@H]2[C@H]1CC[C@@]1(C)[C@@H](CC[C@@]3(C)O[C@@H]23)C1(F)F` as the molecule, how does the Activity [1] read?
A: Its Activity is “Non-Toxic”.

Q: And the half-life [2]?
A: Its half-life is 12.6 min.

Q: And the inhibition (CD4+ve Th [3])?
A: The inhibition was “inactive”.

Q: And the Activity [4]?
A: The Activity was “Non-Toxic”.

Q: What about the MRT last at 24 h [5] of the same molecule?
A: Its MRT last at 24 h is 5 h.

Q: What about the IL17A+ cells at 1 µM [6] of the same molecule?
A: Its IL17A+ cells at 1 µM is 8.1%.

Q: What about the Activity (Mus musculus [7]) of the same molecule?
A: Its Activity is “Active”.

Q: And the ΔTm [8]?
A: The ΔTm was 6 °C.

Q: What about the Activity (Mus musculus [9]) of the same molecule?
A: The Activity was “Active”.

Q: And the CLhep predicted [10]?
A: Its CLhep predicted is 43.1 mL/min/kg.

Q: What about the Foxp3+ cells at 3 µM [11] of the same molecule?
A: The Foxp3+ cells at 3 µM was 20.8%.

Q: What about the Activity (Mus musculus [12]) of the same molecule?
A: The Activity was “Active”.

Q: What about the Activity [13] of the same molecule?
A: The Activity was “Non-Toxic”.

Q: What about the Activity (Mus musculus [14]) of the same molecule?
A: Its Activity is “Active”.

Q: What about the Activity (Mus musculus [15]) of the same molecule?
A: Its Activity is “inactive”.

Q: And the IC50 (T-cell)?
A: The IC50 was 590 nM.

Q: What about the inhibition (CD4+ve Th [16]) of the same molecule?
A: The inhibition was “Active”.

Q: And the half-life [17]?
A: The half-life was 480 min.

Q: What about the Activity (Mus musculus [18]) of the same molecule?
A: The Activity was “Active”.

Q: What about the inhibition (CD4+ve Th [19]) of the same molecule?
A: The inhibition was “Active”.

Q: And the bioavailability [20]?
A: The bioavailability was 2.8%.

Q: What about the Activity (Mus musculus [21]) of the same molecule?
A: The Activity was “Active”.

Q: And the Vd [22]?
A: The Vd was 17.6 L/kg.

Q: What about the Foxp3+ cells at 0.1 µM [23] of the same molecule?
A: The Foxp3+ cells at 0.1 µM was 20.3%.

Q: And the IL17A+ cells at 3 µM [24]?
A: The IL17A+ cells at 3 µM was 4.26%.

Q: And the Foxp3+ cells at 1 µM [25]?
A: The Foxp3+ cells at 1 µM was 22.8%.

Q: And the Activity [26]?
A: The Activity was “Non-Toxic”.

Q: What about the inhibition (CD4+ve Th [27]) of the same molecule?
A: The inhibition was “Active”.
